# Measured values published in PubChem BioAssay (NCI).
#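 Each compound was tested at five concentrations against cells in 96-well plates for 48 hours. GI50: concentration for 50% inhibition of growth. At the TGI there is no net growth.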
# Experiments:
# Test in all cases: NCI tumour cell line growth inhibition, 48 h
# 786-0 renal = test system: 786-0 renal
# A498 renal = test system: A498 renal
# A549 NSCLC = test system: A549 NSCLC
# ACHN renal = test system: ACHN renal
# BT-549 breast = test system: BT-549 breast
# CAKI-1 renal = test system: CAKI-1 renal
# CCRF-CEM leukemia = test system: CCRF-CEM leukemia
# COLO 205 colon = test system: COLO 205 colon
# DU-145 prostate = test system: DU-145 prostate
# EKVX NSCLC = test system: EKVX NSCLC
# HCC-2998 colon = test system: HCC-2998 colon
# HCT-116 colon = test system: HCT-116 colon
# HCT-15 colon = test system: HCT-15 colon
# HL-60(TB) leukemia = test system: HL-60(TB) leukemia
# HOP-62 NSCLC = test system: HOP-62 NSCLC
# HOP-92 NSCLC = test system: HOP-92 NSCLC
# HS 578T breast = test system: HS 578T breast
# HT29 colon = test system: HT29 colon
# IGROV1 ovarian = test system: IGROV1 ovarian
# K-562 leukemia = test system: K-562 leukemia
# KM12 colon = test system: KM12 colon
# LOX IMVI melanoma = test system: LOX IMVI melanoma
# M14 melanoma = test system: M14 melanoma
# MALME-3M melanoma = test system: MALME-3M melanoma
# MCF7 breast = test system: MCF7 breast
# MDA-MB-231 breast = test system: MDA-MB-231 breast
# MOLT-4 leukemia = test system: MOLT-4 leukemia
# NCI-H226 lung = test system: NCI-H226 lung
# NCI-H23 lung = test system: NCI-H23 lung
# NCI-H460 lung = test system: NCI-H460 lung
# NCI-H522 lung = test system: NCI-H522 lung
# NCI/ADR-RES ovarian = test system: NCI/ADR-RES ovarian
# OVCAR-3 ovarian = test system: OVCAR-3 ovarian
# OVCAR-4 ovarian = test system: OVCAR-4 ovarian
# OVCAR-5 ovarian = test system: OVCAR-5 ovarian
# OVCAR-8 ovarian = test system: OVCAR-8 ovarian
# PC-3 prostate = test system: PC-3 prostate
# RPMI-8226 leukemia = test system: RPMI-8226 leukemia
# SF-268 CNS = test system: SF-268 CNS
# SF-295 CNS = test system: SF-295 CNS
# SF-539 CNS = test system: SF-539 CNS
# SK-MEL-2 melanoma = test system: SK-MEL-2 melanoma
# SK-MEL-28 melanoma = test system: SK-MEL-28 melanoma
# SK-MEL-5 melanoma = test system: SK-MEL-5 melanoma
# SK-OV-3 ovarian = test system: SK-OV-3 ovarian
# SN12C renal = test system: SN12C renal
# SNB-19 CNS = test system: SNB-19 CNS
# SNB-75 CNS = test system: SNB-75 CNS
# SR leukemia = test system: SR leukemia
# SW-620 colon = test system: SW-620 colon
# T-47D breast = test system: T-47D breast
# TK-10 renal = test system: TK-10 renal
# U251 CNS = test system: U251 CNS
# UACC-257 melanoma = test system: UACC-257 melanoma
# UACC-62 melanoma = test system: UACC-62 melanoma
# UO-31 renal = test system: UO-31 renal
smiles,measurement,setting,value
COc1ccc(C(=O)c2cc(C)c(OC)c(C)c2)c(OC)c1N(C(=O)CCl)C(=O)CCl,GI50,786-0 renal,0.0474 µM
same,TGI,786-0 renal,15.4 µM
same,GI50,A498 renal,0.0244 µM
same,TGI,A498 renal,0.103 µM
same,GI50,A549 NSCLC,0.0834 µM
same,TGI,A549 NSCLC,> 100 µM
same,GI50,ACHN renal,0.0773 µM
same,TGI,ACHN renal,36.7 µM
same,GI50,BT-549 breast,0.0554 µM
same,TGI,BT-549 breast,1.43 µM
same,GI50,CAKI-1 renal,0.0414 µM
same,TGI,CAKI-1 renal,33.5 µM
same,GI50,CCRF-CEM leukemia,0.166 µM
same,TGI,CCRF-CEM leukemia,> 37.8 µM
same,GI50,COLO 205 colon,0.104 µM
same,TGI,COLO 205 colon,17.6 µM
same,GI50,DU-145 prostate,0.0388 µM
same,TGI,DU-145 prostate,16.8 µM
same,GI50,EKVX NSCLC,0.0792 µM
same,TGI,EKVX NSCLC,69 µM
same,GI50,HCC-2998 colon,0.0803 µM
same,TGI,HCC-2998 colon,7.35 µM
same,GI50,HCT-116 colon,0.0638 µM
same,TGI,HCT-116 colon,10.8 µM
same,GI50,HCT-15 colon,0.0537 µM
same,TGI,HCT-15 colon,14.2 µM
same,GI50,HL-60(TB) leukemia,0.0316 µM
same,TGI,HL-60(TB) leukemia,0.106 µM
same,GI50,HOP-62 NSCLC,0.0546 µM
same,TGI,HOP-62 NSCLC,25 µM
same,GI50,HOP-92 NSCLC,0.195 µM
same,TGI,HOP-92 NSCLC,30.9 µM
same,GI50,HS 578T breast,0.0333 µM
same,TGI,HS 578T breast,> 100 µM
same,GI50,HT29 colon,0.307 µM
same,TGI,HT29 colon,22.5 µM
same,GI50,IGROV1 ovarian,0.0738 µM
same,TGI,IGROV1 ovarian,3.83 µM
same,GI50,K-562 leukemia,0.0557 µM
same,TGI,K-562 leukemia,> 100 µM
same,GI50,KM12 colon,0.0421 µM
same,TGI,KM12 colon,6.07 µM
same,GI50,LOX IMVI melanoma,0.0731 µM
same,TGI,LOX IMVI melanoma,2.66 µM
same,GI50,M14 melanoma,0.0365 µM
same,TGI,M14 melanoma,0.531 µM
same,GI50,MALME-3M melanoma,0.0667 µM
same,TGI,MALME-3M melanoma,25.4 µM
same,GI50,MCF7 breast,0.0657 µM
same,TGI,MCF7 breast,> 38.6 µM
same,GI50,MDA-MB-231 breast,0.149 µM
same,TGI,MDA-MB-231 breast,18.9 µM
same,GI50,MOLT-4 leukemia,0.172 µM
same,TGI,MOLT-4 leukemia,24.2 µM
same,GI50,NCI-H226 lung,0.0562 µM
same,TGI,NCI-H226 lung,4.22 µM
same,GI50,NCI-H23 lung,0.0696 µM
same,TGI,NCI-H23 lung,14.2 µM
same,GI50,NCI-H460 lung,0.0386 µM
same,TGI,NCI-H460 lung,1.3 µM
same,GI50,NCI-H522 lung,0.0349 µM
same,TGI,NCI-H522 lung,0.906 µM
same,GI50,NCI/ADR-RES ovarian,0.0311 µM
same,TGI,NCI/ADR-RES ovarian,1.48 µM
same,GI50,OVCAR-3 ovarian,0.0398 µM
same,TGI,OVCAR-3 ovarian,1.58 µM
same,GI50,OVCAR-4 ovarian,0.719 µM
same,TGI,OVCAR-4 ovarian,> 67 µM
same,GI50,OVCAR-5 ovarian,0.101 µM
same,TGI,OVCAR-5 ovarian,> 53.6 µM
same,GI50,OVCAR-8 ovarian,0.062 µM
same,TGI,OVCAR-8 ovarian,> 92.4 µM
same,GI50,PC-3 prostate,0.0467 µM
same,TGI,PC-3 prostate,18.4 µM
same,GI50,RPMI-8226 leukemia,0.118 µM
same,TGI,RPMI-8226 leukemia,15.1 µM
same,GI50,SF-268 CNS,0.548 µM
same,TGI,SF-268 CNS,46 µM
same,GI50,SF-295 CNS,0.0321 µM
same,TGI,SF-295 CNS,15.5 µM
same,GI50,SF-539 CNS,0.0302 µM
same,TGI,SF-539 CNS,0.141 µM
same,GI50,SK-MEL-2 melanoma,0.0522 µM
same,TGI,SK-MEL-2 melanoma,19.7 µM
same,GI50,SK-MEL-28 melanoma,0.168 µM
same,TGI,SK-MEL-28 melanoma,25.3 µM
same,GI50,SK-MEL-5 melanoma,0.0554 µM
same,TGI,SK-MEL-5 melanoma,1.96 µM
same,GI50,SK-OV-3 ovarian,0.0514 µM
same,TGI,SK-OV-3 ovarian,> 83.8 µM
same,GI50,SN12C renal,0.0831 µM
same,TGI,SN12C renal,20.9 µM
same,GI50,SNB-19 CNS,0.05 µM
same,TGI,SNB-19 CNS,> 71.1 µM
same,GI50,SNB-75 CNS,0.0274 µM
same,TGI,SNB-75 CNS,27.3 µM
same,GI50,SR leukemia,0.045 µM
same,TGI,SR leukemia,> 100 µM
same,GI50,SW-620 colon,0.0432 µM
same,TGI,SW-620 colon,19.3 µM
same,GI50,T-47D breast,0.0445 µM
same,TGI,T-47D breast,44.4 µM
same,GI50,TK-10 renal,13.4 µM
same,TGI,TK-10 renal,> 100 µM
same,GI50,U251 CNS,0.0509 µM
same,TGI,U251 CNS,20.3 µM
same,GI50,UACC-257 melanoma,16.8 µM
same,TGI,UACC-257 melanoma,> 88.4 µM
same,GI50,UACC-62 melanoma,0.067 µM
same,TGI,UACC-62 melanoma,23.5 µM
same,GI50,UO-31 renal,0.0829 µM
same,TGI,UO-31 renal,24.9 µM
